# Tests used:
# [1] = tested on: ME/CFS patients; experiment: Bortezomib treatment of ME/CFS patients (case reports Patient 1, Patient 2); type: in vivo, human; details: for clinical effect on ME/CFS symptoms: PEM, pain
# Description: They received Bortezomib subcutaneously says 1, 4, 11 and 15. […] They therefore received the third course of Bortezomib as an intravenous infusion with the same dose 1.3 mg/m^2, given at days 1, 4, 8 and 11.
# They had increasing energy, increased exertion and was able to perform many new tasks. […] The self-reported symptom improvement was supported by measured steps per 24 hours (Fitbit armband) and in the response period we registered more than 10.000 steps per day.
# The effect lasted for approximately 7 weeks before they started experiencing gradual relapse of the ME/CFS symptoms.
# […] Fitbit armband verified […] description of improvement, with increasing steps per 24 hours from mean 1500-2000 before intervention to approximately 4000, up to 7000 on single days, after response.
# [2] = tested on: patients with N-Methyl-D-Aspartate (NMDA) receptor antibody-mediated encephalitis; details: refractory to first and second line therapy; cited from earlier work
# [3] = tested on: lupus nephritis in mice; details: Bortezomib plus B-cell depletion; cited from earlier work
# [4] = tested on: ME/CFS patients; details: cited from earlier work; for effect on ME/CFS symptoms: patients with longstanding ME/CFS given the drug for an acquired cancer
# [5] = tested on: ME/CFS patients; details: Patient 2; open-label trial, cyclophosphamide intravenous infusions
SMILES,duration of effect before gradual relapse ([1]; Patient 1),measured steps per 24 hours (Fitbit armband) in the response period ([1]; Patient 1),"clinical effect on ME/CFS symptoms ([1]; Patient 1, cognitive disturbances, sleep problems)","side effects ([1]; Patient 1, first course 1.0 mg/m^2 subcutaneously)","side effects ([1]; Patient 1, second course 1.3 mg/m^2 subcutaneously)","side effects ([1]; Patient 1, third course 1.3 mg/m^2 intravenous infusion)","start of gradual improvement of ME/CFS symptoms, from start of bortezomib treatment ([1]; Patient 1, three courses Bortezomib 1.0-1.3 mg/m^2 sc/iv)",response lasting until time after the last Bortezomib infusion ([1]; Patient 2),steps per 24 hours on single days after response ([1]; Patient 2),"side effects ([1]; Patient 2, after the last (sixth) course)","start of improvement of ME/CFS symptoms, after start of Bortezomib intervention ([1]; Patient 2, courses 1.0 then 1.3 mg/m^2)","clinical effect on ME/CFS symptoms ([1]; Patient 2, energy, dizziness, cognitive function)","side effects ([1]; Patient 2, first course 1.0 mg/m^2 subcutaneously)","total duration of response before gradual relapse ([1]; Patient 2, in total 6 courses)","steps per 24 hours (Fitbit armband) after response ([1]; Patient 2, mean 1500-2000 before intervention)",clinical outcome [2],outcome [3],effect on ME/CFS symptoms [4],"share of patients with significant clinical improvements of long duration ([4]; phase II trial, 6 courses of Cyclophosphamide)",duration of clinical response before gradual relapse [5]
CC(C)C[C@H](NC(=O)[C@H](Cc1ccccc1)NC(=O)c1cnccn1)B(O)O [Bortezomib],approximately 7 weeks,more than 10.000 steps per day,gradual improvement of all their ME/CFS symptoms,no bortezomib-associated side effects except an exanthema around the injection site,increasing local reaction at the injection site and with some transient fatigue and pain in the muscles,transient exanthema along the vein on the arm,10 week,6 weeks,up to 7000 steps per 24 hours,"discomfort in their lower extremities at the legs and feet, and some constipation",7 weeks,gradual and consistent improvement of all their ME/CS symptoms,minimal skin reaction at the injection site and no other side effects,16 weeks,approximately 4000 steps per 24 hours,clinical improvement and reduction of pathologic autoantibodies,sustained plasma cell depletion and amelioration of lupus nephritis,–,–,–
O=P1(N(CCCl)CCCl)NCCCO1 (stereo not drawn) [Cyclophosphamide],–,–,–,–,–,–,–,–,–,–,–,–,–,–,–,–,–,significant symptomatic improvement,more than half the patients,almost a year
O=P1(NCCCl)OCCCN1CCCl (stereo not drawn) [Ifosfamide],–,–,–,–,–,–,–,–,–,–,–,–,–,–,–,–,–,significant symptomatic improvement,–,–

# From patent publication US12599620B2, “Method for the treatment of chronic fatigue syndrome using an inhibitory or cytotoxic agent against plasma cells” (Vestlandets Innovasjonsselskap AS, priority 2019, dated 2026)
